# Results reported in patent US7750003B2, “Compounds-943” (AstraZeneca AB, priority 2006, dated 2010).
# Tested on: phosphorylation of Serine 473 in Akt in MDA-MB-468 human breast adenocarcinoma cells
# Assay: In vitro phospho-Ser473 Akt assay (Test (c))
# Format: cell-based
# Conditions: Homo sapiens, MDA-MB-468, 2 h, MDA-MB-468 cells, 2 hours incubation; read-out: Test (c): IC50 versus Serine 473 in Akt
# How it was run: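 MDA-MB-468 cells (15000/well, adhered overnight) treated with compound for 2 h at 37 °C, 5% CO2. After formaldehyde fixation, permeabilisation and blocking, phospho-Akt Ser473 immunostained with Alexafluor488 secondary and quantified by laser-scanning imaging (Acumen Explorer); IC50 from fluorescence dose–response.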
row,Compound,IC50 [µM]
1,"CC(C)S(=O)(=O)C(C)(C)c1cc(N2CCOC[C@@H]2C)nc(-c2ccc(NC(=O)NC(C)(C)CO)cc2)n1 [Example 60o, 3-(1-hydroxy-2-methyl-propan-2-yl)-1-[4-[4-[(3S)-3-methylmorpholin-4-yl]-6-(2-propan-2-ylsulfonylpropan-2-yl)pyrimidin-2-yl]phenyl]urea]",0.086
2,"CC(C)S(=O)(=O)C(C)(C)c1cc(N2CCOC[C@@H]2C)nc(-c2ccc(NC(=O)NCCN(C)C)cc2)n1 [Example 60p, 3-(2-dimethylaminoethyl)-1-[4-[4-[(3S)-3-methylmorpholin-4-yl]-6-(2-propan-2-ylsulfonylpropan-2-yl)pyrimidin-2-yl]phenyl]urea]",0.14
3,"CCCNC(=O)Nc1ccc(-c2nc(N3CCOC[C@@H]3C)cc(C(C)(C)S(=O)(=O)C(C)C)n2)cc1 [Example 60q, 3-[4-[4-[(3S)-3-methylmorpholin-4-yl]-6-(2-propan-2-ylsulfonylpropan-2-yl)pyrimidin-2-yl]phenyl]-1-propyl-urea]",0.16
4,"CC(C)CNC(=O)Nc1ccc(-c2nc(N3CCOC[C@@H]3C)cc(C(C)(C)S(=O)(=O)C(C)C)n2)cc1 [Example 60r, 1-[4-[4-[(3S)-3-methylmorpholin-4-yl]-6-(2-propan-2-ylsulfonylpropan-2-yl)pyrimidin-2-yl]phenyl]-3-(2-methylpropyl)urea]",0.21
5,"CC(C)S(=O)(=O)C(C)(C)c1cc(N2CCOC[C@@H]2C)nc(-c2ccc(NC(=O)NCCCO)cc2)n1 [Example 60s, 3-(3-hydroxypropyl)-1-[4-[4-[(3S)-3-methylmorpholin-4-yl]-6-(2-propan-2-ylsulfonylpropan-2-yl)pyrimidin-2-yl]phenyl]urea]",0.3
6,"CC(C)S(=O)(=O)C(C)(C)c1cc(N2CCOC[C@@H]2C)nc(-c2ccc(NC(=O)Nc3ccc(C(F)(F)F)cc3)cc2)n1 [Example 60t, 1-[4-[4-[(3S)-3-methylmorpholin-4-yl]-6-(2-propan-2-ylsulfonylpropan-2-yl)pyrimidin-2-yl]phenyl]-3-[4-(trifluoromethyl)phenyl]urea]",1.4
7,"CC(C)S(=O)(=O)C(C)(C)c1cc(N2CCOC[C@@H]2C)nc(-c2ccc(NC(=O)Nc3cnn(C)c3)cc2)n1 [Example 60v, 1-[4-[4-[(3S)-3-methylmorpholin-4-yl]-6-(2-propan-2-ylsulfonylpropan-2-yl)pyrimidin-2-yl]phenyl]-3-(1-methylpyrazol-4-yl)urea]",0.27
8,"C[C@H]1COCCN1c1cc(CS(=O)(=O)c2ccc(F)cc2)nc(-c2ccc(NC(=O)NC3CCC3)cc2)n1 [Example 61, 3-Cyclobutyl-1-[4-[4-[(4-fluorophenyl)sulfonylmethyl]-6-[(3S)-3-methylmorpholin-4-yl]pyrimidin-2-yl]phenyl]urea]",0.33
9,"CCNC(=O)Nc1ccc(-c2nc(CS(=O)(=O)c3ccc(F)cc3)cc(N3CCOC[C@@H]3C)n2)cc1 [Example 61a, 1-ethyl-3-[4-[4-[(4-fluorophenyl)sulfonylmethyl]-6-[(3S)-3-methylmorpholin-4-yl]pyrimidin-2-yl]phenyl]urea]",0.75
10,"CC(C)NC(=O)Nc1ccc(-c2nc(CS(=O)(=O)c3ccc(F)cc3)cc(N3CCOC[C@@H]3C)n2)cc1 [Example 61b, 1-[4-[4-[(4-fluorophenyl)sulfonylmethyl]-6-[(3S)-3-methylmorpholin-4-yl]pyrimidin-2-yl]phenyl]-3-propan-2-yl-urea]",0.038
11,"C[C@H]1COCCN1c1cc(CS(=O)(=O)c2ccc(F)cc2)nc(-c2ccc(NC(=O)NCCO)cc2)n1 [Example 61c, 1-[4-[4-[(4-fluorophenyl)sulfonylmethyl]-6-[(3S)-3-methylmorpholin-4-yl]pyrimidin-2-yl]phenyl]-3-(2-hydroxyethyl)urea]",0.41
12,"C[C@H]1COCCN1c1cc(CS(=O)(=O)c2ccc(F)cc2)nc(-c2ccc(NC(=O)NC(C)(C)CO)cc2)n1 [Example 61d, 1-[4-[4-[(4-fluorophenyl)sulfonylmethyl]-6-[(3S)-3-methylmorpholin-4-yl]pyrimidin-2-yl]phenyl]-3-(1-hydroxy-2-methyl-propan-2-yl)urea]",0.18
13,"C[C@H]1COCCN1c1cc(CS(=O)(=O)c2ccc(F)cc2)nc(-c2ccc(NC(=O)NCCN(C)C)cc2)n1 [Example 61e, 3-(2-dimethylaminoethyl)-1-[4-[4-[(4-fluorophenyl)sulfonylmethyl]-6-[(3S)-3-methylmorpholin-4-yl]pyrimidin-2-yl]phenyl]urea]",0.12
14,"CC(C)CNC(=O)Nc1ccc(-c2nc(CS(=O)(=O)c3ccc(F)cc3)cc(N3CCOC[C@@H]3C)n2)cc1 [Example 61g, 1-[4-[4-[(4-fluorophenyl)sulfonylmethyl]-6-[(3S)-3-methylmorpholin-4-yl]pyrimidin-2-yl]phenyl]-3-(2-methylpropyl)urea]",0.45
15,"C[C@H]1COCCN1c1cc(CS(=O)(=O)c2ccc(F)cc2)nc(-c2ccc(NC(=O)NCCCO)cc2)n1 [Example 61h, 1-[4-[4-[(4-fluorophenyl)sulfonylmethyl]-6-[(3S)-3-methylmorpholin-4-yl]pyrimidin-2-yl]phenyl]-3-(3-hydroxypropyl)urea]",0.79
16,"CNC(=O)Nc1ccc(-c2nc(N3CCOC[C@@H]3C)cc(C(C)(C)S(=O)(=O)c3ccc(F)cc3)n2)cc1 [Example 61k, 1-[4-[4-[2-(4-fluorophenyl)sulfonylpropan-2-yl]-6-[(3S)-3-methylmorpholin-4-yl]pyrimidin-2-yl]phenyl]-3-methyl-urea]",0.12
17,"CCNC(=O)Nc1ccc(-c2nc(N3CCOC[C@@H]3C)cc(C(C)(C)S(=O)(=O)c3ccc(F)cc3)n2)cc1 [Example 61l, 1-ethyl-3-[4-[4-[2-(4-fluorophenyl)sulfonylpropan-2-yl]-6-[(3S)-3-methylmorpholin-4-yl]pyrimidin-2-yl]phenyl]urea]",0.099
18,"CC(C)NC(=O)Nc1ccc(-c2nc(N3CCOC[C@@H]3C)cc(C(C)(C)S(=O)(=O)c3ccc(F)cc3)n2)cc1 [Example 61m, 1-[4-[4-[2-(4-fluorophenyl)sulfonylpropan-2-yl]-6-[(3S)-3-methylmorpholin-4-yl]pyrimidin-2-yl]phenyl]-3-propan-2-yl-urea]",0.03
19,"C[C@H]1COCCN1c1cc(C(C)(C)S(=O)(=O)c2ccc(F)cc2)nc(-c2ccc(NC(=O)NC3CCC3)cc2)n1 [Example 61n, 3-cyclobutyl-1-[4-[4-[2-(4-fluorophenyl)sulfonylpropan-2-yl]-6-[(3S)-3-methylmorpholin-4-yl]pyrimidin-2-yl]phenyl]urea]",0.038
20,"C[C@H]1COCCN1c1cc(C(C)(C)S(=O)(=O)c2ccc(F)cc2)nc(-c2ccc(NC(=O)NCCN(C)C)cc2)n1 [Example 61o, 3-(2-dimethylaminoethyl)-1-[4-[4-[2-(4-fluorophenyl)sulfonylpropan-2-yl]-6-[(3S)-3-methylmorpholin-4-yl]pyrimidin-2-yl]phenyl]urea]",0.045
21,"C[C@H]1COCCN1c1cc(C(C)(C)S(=O)(=O)c2ccc(F)cc2)nc(-c2ccc(NC(=O)NC3CC3)cc2)n1 [Example 61q, 3-cyclopropyl-1-[4-[4-[2-(4-fluorophenyl)sulfonylpropan-2-yl]-6-[(3S)-3-methylmorpholin-4-yl]pyrimidin-2-yl]phenyl]urea]",0.077
22,"C[C@H]1COCCN1c1cc(C(=O)N2CCOCC2)nc(-c2ccc(NC(=O)NC3CC3)cc2)n1 [Example 63, 3-Cyclopropyl-1-[4-[4-[(3S)-3-methylmorpholin-4-yl]-6-(morpholine-4-carbonyl)pyrimidin-2-yl]phenyl]urea]",0.41
23,"C[C@H]1COCCN1c1cc(C(=O)N2CCCNCC2)nc(-c2ccc(NC(=O)NC3CC3)cc2)n1 [Example 63a, 3-cyclopropyl-1-[4-[4-(1,4-diazepane-1-carbonyl)-6-[(3S)-3-methylmorpholin-4-yl]pyrimidin-2-yl]phenyl]urea]",0.092
24,"C[C@H]1COCCN1c1cc(C(=O)N2CCS(=O)(=O)CC2)nc(-c2ccc(NC(=O)NC3CC3)cc2)n1 [Example 63b, 3-cyclopropyl-1-[4-[4-(1,1-dioxo1,4-thiazinane-4-carbonyl)-6-[(3S)-3-methylmorpholin-4-yl]pyrimidin-2-yl]phenyl]urea]",0.5
25,"C[C@@H]1CN(C(=O)c2cc(N3CCOC[C@@H]3C)nc(-c3ccc(NC(=O)NC4CC4)cc3)n2)C[C@H](C)O1 [Example 63c, 3-cyclopropyl-1-[4-[4-[(2R,6S)-2,6-dimethylmorpholine-4-carbonyl]-6-[(3S)-3-methylmorpholin-4-yl]pyrimidin-2-yl]phenyl]urea]",0.26
26,"C[C@H]1COCCN1c1cc(C(C)(C)S(=O)(=O)C(C)(C)C)nc(-c2ccc(NC(=O)NC3CC3)cc2)n1 [Example 66c, 3-cyclopropyl-1-[4-[4-[(3S)-3-methylmorpholin-4-yl]-6-(2-tert-butylsulfonylpropan-2-yl)pyrimidin-2-yl]phenyl]urea]",0.15
27,"C[C@H]1COCCN1c1cc(C(C)(C)S(=O)(=O)C(C)(C)C)nc(-c2ccc(NC(=O)NC3CCC3)cc2)n1 [Example 66d, 3-cyclobutyl-1-[4-[4-[(3S)-3-methylmorpholin-4-yl]-6-(2-tert-butylsulfonylpropan-2-yl)pyrimidin-2-yl]phenyl]urea]",0.16
28,"CCNC(=O)Nc1ccc(-c2nc(N3CCOC[C@@H]3C)cc(C(C)(C)S(=O)(=O)C(C)(C)C)n2)cc1 [Example 66e, 3-ethyl-1-[4-[4-[(3S)-3-methylmorpholin-4-yl]-6-(2-tert-butylsulfonylpropan-2-yl)pyrimidin-2-yl]phenyl]urea]",0.26
29,"C[C@H]1COCCN1c1cc(C(C)(C)S(=O)(=O)C(C)(C)C)nc(-c2ccc(NC(=O)NCCN(C)C)cc2)n1 [Example 66f, 3-(2-dimethylaminoethyl)-1-[4-[4-[(3S)-3-methylmorpholin-4-yl]-6-(2-tert-butylsulfonylpropan-2-yl)pyrimidin-2-yl]phenyl]urea]",0.04
